# From patent US20260049085A1, “CYCLIC COMPOUNDS AND METHODS OF USING SAME” (SCHRÖDINGER, INC., priority 2022, published 2026)
# Target: T1, full-length MALT1 protein His-MALT1(1-824) (Homo sapiens, UniProt Q9UDY8)
# T1 construct: full-length MALT1 protein His-MALT1(1-824); His (N); made in house; host or cells: baculovirus-infected insect cells
# T1 sequence (Q9UDY8 1-824): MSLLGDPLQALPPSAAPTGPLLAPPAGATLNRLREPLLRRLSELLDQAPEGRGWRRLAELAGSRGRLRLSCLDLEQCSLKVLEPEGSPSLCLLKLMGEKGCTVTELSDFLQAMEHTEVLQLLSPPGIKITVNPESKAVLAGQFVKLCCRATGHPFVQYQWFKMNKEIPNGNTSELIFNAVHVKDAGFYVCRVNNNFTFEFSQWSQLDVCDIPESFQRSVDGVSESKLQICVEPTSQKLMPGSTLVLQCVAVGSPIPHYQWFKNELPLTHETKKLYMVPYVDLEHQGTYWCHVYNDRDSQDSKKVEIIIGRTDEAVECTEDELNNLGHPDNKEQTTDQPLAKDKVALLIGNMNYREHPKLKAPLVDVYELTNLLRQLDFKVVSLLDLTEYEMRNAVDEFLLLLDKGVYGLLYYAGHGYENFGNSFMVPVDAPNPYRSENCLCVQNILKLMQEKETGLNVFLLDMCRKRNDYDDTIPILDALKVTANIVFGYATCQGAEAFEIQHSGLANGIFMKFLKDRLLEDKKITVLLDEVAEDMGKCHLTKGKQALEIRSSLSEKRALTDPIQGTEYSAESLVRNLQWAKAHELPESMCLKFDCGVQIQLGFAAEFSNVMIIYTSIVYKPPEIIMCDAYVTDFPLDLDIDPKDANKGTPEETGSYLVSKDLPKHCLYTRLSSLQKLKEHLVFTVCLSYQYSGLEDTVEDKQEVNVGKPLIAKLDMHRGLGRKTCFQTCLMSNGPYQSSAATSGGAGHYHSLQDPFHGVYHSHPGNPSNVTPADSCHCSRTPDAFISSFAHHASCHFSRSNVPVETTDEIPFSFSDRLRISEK
# Experiment: MALT1 protease assay (Ac-LRSR-AMC tetrapeptide substrate, fluorescence)
# Assay type: biochemical
# Conditions: 1 nM MALT1, 25 μM Ac-LRSR-AMC, 2 h pre-incubation, 8 hr incubation at RT
# How it was run: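 Full-length His-MALT1(1-824) from baculovirus-infected insect cells (1 nM) was pre-incubated 2 h at RT with compounds (0.1% DMSO), then 25 μM Ac-LRSR-AMC added in 50 mM Tris pH 7.5, 600 mM sodium citrate, 1 mM DTT, 1 mM EDTA, 0.05% BSA. Fluorescence (ex 355/em 460 nm) read after 8 h at RT; IC50 by non-linear regression of % remaining activity.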
row,SMILES,IC50 [µM]
1,"C[C@@]1(c2cnn(C(F)F)c2)C[C@@H](C(=O)Nc2cnc(-c3ncncc3F)c(C(F)(F)F)c2)c2cnc3cc(F)nn3c21 (single isomer, unassigned) [Example 119]",≥ 1
2,"CC(F)(F)n1cc([C@]2(C)C[C@@H](C(=O)Nc3cnc(-n4nccn4)c(Cl)c3)c3cnc4cc(F)nn4c32)cn1 (single isomer, unassigned) [Example 121]",≥ 1
3,"CC(F)(F)n1cc([C@]2(C)C[C@H](C(=O)Nc3cnc(-n4nccn4)c(Cl)c3)c3cnc4cc(F)nn4c32)cn1 (single isomer, unassigned) [Example 122]",0.1 to 1
4,"CC(F)(F)n1cc([C@@]2(C)C[C@@H](C(=O)Nc3cnc(-n4nccn4)c(Cl)c3)c3cnc4cc(F)nn4c32)cn1 (single isomer, unassigned) [Example 123]",0.1 to 1
5,"C[C@@]1(c2ccn(C(F)F)n2)C[C@@H](C(=O)Nc2cnc(-n3nccn3)c(C(F)(F)F)c2)c2cnc3cc(F)nn3c21 (single isomer, unassigned) [Example 125]",≥ 1
6,"C[C@@]1(c2ccn(C(F)F)n2)C[C@H](C(=O)Nc2cnc(-n3nccn3)c(C(F)(F)F)c2)c2cnc3cc(F)nn3c21 (single isomer, unassigned) [Example 126]",0.01 to 0.1
7,"C[C@]1(c2ccn(C(F)F)n2)C[C@@H](C(=O)Nc2cnc(-n3nccn3)c(C(F)(F)F)c2)c2cnc3cc(F)nn3c21 (single isomer, unassigned) [Example 127]",0.01 to 0.1
8,"CC1(c2cnn(C(F)F)c2)CC(C(=O)Nc2cnc(-c3ncc(F)cn3)c(C(F)(F)F)c2)c2cnc3cc(F)nn3c21 (single isomer, unassigned) [Example 133]",0.1 to 1
9,"CC1(c2cnn(C(F)F)c2)CC(C(=O)Nc2cnc(-c3ncc(F)cn3)c(Cl)c2)c2cnc3cc(F)nn3c21 (single isomer, unassigned) [Example 135]",0.1 to 1
10,"C[C@@]1(c2ccn(C(F)F)n2)C[C@@H](C(=O)Nc2cnc(-c3ncccn3)c(C(F)(F)F)c2)c2cnc3cc(F)nn3c21 (single isomer, unassigned) [Example 137]",≥ 1
11,"C[C@@]1(c2ccn(C(F)F)n2)C[C@H](C(=O)Nc2cnc(-c3ncccn3)c(C(F)(F)F)c2)c2cnc3cc(F)nn3c21 (single isomer, unassigned) [Example 138]",0.1 to 1
12,"C[C@]1(c2ccn(C(F)F)n2)C[C@@H](C(=O)Nc2cnc(-c3ncccn3)c(C(F)(F)F)c2)c2cnc3cc(F)nn3c21 (single isomer, unassigned) [Example 139]",0.1 to 1
13,"C[C@@]1(c2ccn(C(F)F)n2)C[C@@H](C(=O)Nc2cnc(-c3ncccn3)c(Cl)c2)c2cnc3cc(F)nn3c21 (single isomer, unassigned) [Example 141]",≥ 1
14,"C[C@@]1(c2ccn(C(F)F)n2)C[C@H](C(=O)Nc2cnc(-c3ncccn3)c(Cl)c2)c2cnc3cc(F)nn3c21 (single isomer, unassigned) [Example 142]",≥ 1
15,"C[C@]1(c2ccn(C(F)F)n2)C[C@@H](C(=O)Nc2cnc(-c3ncccn3)c(Cl)c2)c2cnc3cc(F)nn3c21 (single isomer, unassigned) [Example 143]",≥ 1
16,"Cn1ccc([C@]2(C)C[C@@H](C(=O)Nc3cnc(-n4nccn4)c(C(F)(F)F)c3)c3cnc4cc(F)nn4c32)n1 (single isomer, unassigned) [Example 145]",≥ 1
17,"Cn1ccc([C@]2(C)C[C@H](C(=O)Nc3cnc(-n4nccn4)c(C(F)(F)F)c3)c3cnc4cc(F)nn4c32)n1 (single isomer, unassigned) [Example 146]",0.1 to 1

row,SMILES,IC50 [µM]
1,"Cn1ccc([C@@]2(C)C[C@@H](C(=O)Nc3cnc(-n4nccn4)c(C(F)(F)F)c3)c3cnc4cc(F)nn4c32)n1 (single isomer, unassigned) [Example 147]",0.1 to 1
2,"C[C@@]1(c2cnn(C(F)F)c2)C[C@@H](C(=O)Nc2cnc(-c3ncccn3)c(C(F)(F)F)c2)c2cnc3cc(F)nn3c21 (single isomer, unassigned) [Example 149]",≥ 1
3,"C[C@@]1(c2cnn(C(F)F)c2)C[C@H](C(=O)Nc2cnc(-c3ncccn3)c(C(F)(F)F)c2)c2cnc3cc(F)nn3c21 (single isomer, unassigned) [Example 150]",0.1 to 1
4,"C[C@]1(c2cnn(C(F)F)c2)C[C@@H](C(=O)Nc2cnc(-c3ncccn3)c(C(F)(F)F)c2)c2cnc3cc(F)nn3c21 (single isomer, unassigned) [Example 151]",0.1 to 1
5,"C[C@]1(c2ccn(C3CC3)n2)C[C@H](C(=O)Nc2cnc(-n3nccn3)c(Cl)c2)c2cnc3cc(F)nn3c21 (single isomer, unassigned) [Example 152]",< 0.01
6,"C[C@@]1(c2ccn(C3CC3)n2)C[C@@H](C(=O)Nc2cnc(-n3nccn3)c(Cl)c2)c2cnc3cc(F)nn3c21 (single isomer, unassigned) [Example 153]",≥ 1
7,"C[C@@]1(c2ccn(C3CC3)n2)C[C@H](C(=O)Nc2cnc(-n3nccn3)c(Cl)c2)c2cnc3cc(F)nn3c21 (single isomer, unassigned) [Example 154]",0.1 to 1
8,"C[C@]1(c2ccn(C3CC3)n2)C[C@@H](C(=O)Nc2cnc(-n3nccn3)c(Cl)c2)c2cnc3cc(F)nn3c21 (single isomer, unassigned) [Example 155]",≥ 1
9,"C[C@]1(c2cnn(C(F)F)c2)C[C@H](C(=O)Nc2cnc(-c3ncncc3F)c(Cl)c2)c2cnc3cc(F)nn3c21 (single isomer, unassigned) [Example 156]",0.01 to 0.1
10,"C[C@@]1(c2cnn(C(F)F)c2)C[C@@H](C(=O)Nc2cnc(-c3ncncc3F)c(Cl)c2)c2cnc3cc(F)nn3c21 (single isomer, unassigned) [Example 157]",≥ 1
11,"CC1(n2ccc([C@@]3(C)C[C@H](C(=O)Nc4cnc(-c5ncccn5)c(C(F)(F)F)c4)c4cnc5cc(F)nn5c43)n2)CC1 (single isomer, unassigned) [Example 158]",0.01 to 0.1
12,"CC1(n2ccc([C@]3(C)C[C@@H](C(=O)Nc4cnc(-c5ncccn5)c(C(F)(F)F)c4)c4cnc5cc(F)nn5c43)n2)CC1 (single isomer, unassigned) [Example 159]",≥ 1
13,"CC1(n2ccc([C@]3(C)C[C@H](C(=O)Nc4cnc(-c5ncccn5)c(C(F)(F)F)c4)c4cnc5cc(F)nn5c43)n2)CC1 (single isomer, unassigned) [Example 160]",0.1 to 1
14,"CC1(n2ccc([C@@]3(C)C[C@@H](C(=O)Nc4cnc(-c5ncccn5)c(C(F)(F)F)c4)c4cnc5cc(F)nn5c43)n2)CC1 (single isomer, unassigned) [Example 161]",≥ 1
15,"CC1(c2ccn(C(F)F)n2)CC(C(=O)Nc2cnc(-c3cccnn3)c(C(F)(F)F)c2)c2cnc3cc(F)nn3c21 (single isomer, unassigned) [Example 162]",0.01 to 0.1
16,"CC1(c2ccn(C(F)F)n2)CC(C(=O)Nc2cnc(-c3cccnn3)c(C(F)(F)F)c2)c2cnc3cc(F)nn3c21 (single isomer, unassigned) [Example 163]",≥ 1
17,"CC(F)(F)n1ccc([C@@]2(C)C[C@H](C(=O)Nc3cnc(-c4ncccn4)c(C(F)(F)F)c3)c3cnc4cc(F)nn4c32)n1 (single isomer, unassigned) [Example 164, (trans)-8-(1-(1,1-difluoroethyl)-1H-pyrazol-3-yl)-2-fluoro-8-methyl-N-(6-(pyrimidin-2-yl)-5-(trifluoromethyl)pyridin-3-yl)-7,8-dihydro-6H-cyclopenta[e]pyrazolo[1,5-a]pyrimidine-6-carboxamide]",< 0.01
